Data: patent publication US7884067B2, “Peptides derived from cadherin and methods of use thereof” (Mount Sinai School of Medicine of New York University, priority 2001, dated 2011)

B1: N-Cad/CTF2: chicken cytoplasmic domain of N-cadherin (N-Cad/CTF2) inserted into vector pECE, expressed in L cells (protein)
chain: KRRDKERQAKQLLIDPEDDVRDNILKYDEEGGGEEDQDYDLSQLQQPDTVEPDAIKPVGIRRLDERPIHAEPQYPVRSAAPHPGDIGDFINEGLKAADNDPTAPPYDSLLVFDYEGSGSTAGSLSSLNSSSSGGEQDYDYLNDWGPRFKKLADMYGGGDD

Tests used:
A431 cells = test: Laser scanning confocal microscopy of ionomycin-induced cell-cell dissociation; type: cell-based, human; conditions: 30 minutes pre-incubation with L-685,458, then ionomycin 45 minutes
Protocol: Immunoprecipitations (IPs), immunoblotting, immunofluorescence and confocal microscopy. For WB analysis of cell extracts, cells were washed with PBS and then solubilized in RIPA buffer. For IPs cells were solubilized in Hepes buffer (25 mM Hepes [pH 7.4], 150 mM NaCl, 1× Complete protease inhibitor cocktail, Roche) containing 1% digitonin (IPs with I-R222 and PI-R222 antibodies) or 1% Triton X-100 (IPs with β-catenin and desmoglein antibodies). Following centrifugation at 17,000×g for 10 min, supernatants (1 mg protein) were pre-cleared with protein A- or protein G-agarose (Pierce) for 2 hours. Supernatants were then incubated with antibodies overnight at 4° C. and treated for 2 hours with protein A-agarose (polyclonal antibodies) or with protein G-agarose (monoclonal antibodies). IPs were washed with Hepes buffer containing either 1% digitonin or 1% Triton X-100 and analyzed by SDS-PAGE. Immunofluorescence and confocal microscopy was performed as described by Georgakopoulos et al., (1999). Briefly, cells were plated on 22×22 mm collagen-coated glass coverslips, fixed in cold methanol for 10 min at −20° C. Following washing in TBS (25 mM Tris-HCl [pH 7.4], 150 mM NaCl), cells were treated with 10% goat serum in SuperBlock (Pierce) for 1 hour, incubated overnight with primary antibody (1:100), washed in TBS and then were incubated with species specific Alexa Fluor™ secondary antibody conjugates (Molecular Probes). Cells were washed with TBS, mounted with Prolong antifade kit (Molecular Probes), and photographed on a Leica confocal laser scanning microscope.
The PS1/γ-secretase role in the disassembly of CAJ was further examined using laser scanning confocal microscopy (LSCM). A431 cells were pre-incubated for 30 minutes in the absence or presence of L-685,458 and then treated for 45 minutes with ionomycin. Following the ionomycin-induced cell-cell dissociation, the distribution of PS1, E-cadherin, β-catenin and α-catenin was analyzed by LSCM using the constant detector setting. […]

[1] = test system: CRE-dependent transactivation; test: CRE-dependent transactivation (luciferase) in L cells; type: cell-based; conditions: L cells transfected with increasing amount of pN-Cad/CTF2, FIG. 9A
Protocol: Transactivation assays. CRE-dependent transactivation was measured in the absence or presence of overexpression of PKA (pFC-PKA, Stratagene) by cotransfection with CRE-luciferase reporter plasmid (pCRE-Luc, Stratagene) and pSV-β-galactosidase vector (Promega) to evaluate transfection efficiency. CHOP-mediated transactivation was measured by cotransfection with the Gal4-fusion trans-activator plasmids (pFA-CHOP and pFR-Luc, Stratagene). 30 hours after transfection, luciferase and β-galactosidase activities were determined following manufacturer's instructions using a TD-20/20 luminometer (Turner Designs) and a DU-64 spectrophotometer (Beckman). Values were normalized to β-galactosidase activity and protein concentration.
Stimulation of synaptic NMDA receptor leads to phosphorylation of transcription factor CREB that then recruits transcription co-activator CBP, a process ultimately leading to activation of CREB-mediated gene expression (Impey and Goodman (2001) Sci STKE, PE1). […] CRE-dependent transactivation was measured in the absence (−) or presence (+) of […] PKA (pFC-PKA) using CRE-luciferase reporter plasmid (pCRE-Luc) and pSV-β-galactosidase vector. CHOP-mediated transactivation was measured by […] with the Gal4-fusion trans-activator plasmids (pFA-CHOP and pFR-Luc) and pSV-β-galactosidase vector. […]

Molecule | loss of cell surface staining of all epitopes (A431 cells) | constitutive and PKA-stimulated CRE-dependent transactivation [1]
CC(C)C[C@H](NC(=O)[C@H](Cc1ccccc1)C[C@@H](O)[C@H](Cc1ccccc1)NC(=O)OC(C)(C)C)C(=O)N[C@@H](Cc1ccccc1)C(N)=O [L-685,458] | significantly delayed | –
B1 | – | inhibits both constitutive and PKA-stimulated CRE-dependent transactivation in a dose-dependent manner
